In article PMC6522510 (Nature Communications, 2019):

How the values were obtained:
Design in all cases: species or system AML cell lines (8); Primary HTS, single concentration about 10 uM, Cell Titer Glo viability; log10 luminescence, per cent inhibition relative to cycloheximide control
Conditions in all cases: 72 h, relative to cycloheximide control, log10 luminescence; inhibitor
[1] = tested on: CMK
[2] = tested on: CMS
[3] = tested on: U937
[4] = tested on: MV4-11
[5] = tested on: CHRF288-11
[6] = tested on: ML-2
[7] = tested on: M07e
[8] = tested on: MOLM-13

SMILES	CMK %inh [1] [%]	CMS %inh [2] [%]	U937 %inh [3] [%]	MV4-11 %inh [4] [%]	CHRF288-11 %inh [5] [%]	ML-2 %inh [6] [%]	M07e %inh [7] [%]	MOLM-13 %inh [8] [%]
Cn1cc(C2=C(n3ccc4ccccc43)C(=O)NC2=O)c2ccccc21 [SJ000581055-1]	-4.048	4.23	-2.193	-2.255	24.92	-0.8882	-0.4303	-2.803
CC(=O)N[C@@H](Cc1ccc(OP(=O)(O)O)cc1)C(=O)N[C@H]1CCC(=O)N2CCC[C@@H](C(=O)NCc3ccc(Cl)cc3)N2C1=O [SJ000581056-1]	-8.834	0.4986	-1.499	-2.949	0.8967	-0.961	-0.4557	-1.276
C[C@H](CS(C)(=O)=O)Nc1ncc2cc(Oc3ccc(F)cc3F)c(=O)n(C)c2n1 [SJ000581059-1]	-5.286	4.304	2.611	-0.5733	14.97	1.6	5.493	-1.998
C[C@@H](CS(C)(=O)=O)Nc1ncc2cc(Oc3ccc(F)cc3F)c(=O)n(C)c2n1 [SJ000581059-2]	2.224	1.072	2.114	3.472	4.121	-1.135	9.03	1.811
Fc1ccc(-c2c(-c3ccncc3)n(CCN3CCOCC3)c3cccnc23)cc1 [SJ000581060-1]	-1.956	2.843	3.3	-0.5528	10.61	0.7421	4.186	-2.603
Cn1c(=O)c(Oc2ccccc2F)cc2cnc(NC3CCOCC3)nc21 [SJ000581061-1]	-2.528	1.876	1.19	0.7758	11.16	3.823	6.564	-1.076
Cn1c(=O)c(Oc2ccc(F)cc2F)cc2cnc(NC3CCS(=O)(=O)CC3)nc21 [SJ000581062-1]	-3.198	-1.245	4.309	-0.9313	0.18	1.685	3.904	-0.445
O=C1NC(=NCC(CO)c2ccccc2)S/C1=C\c1ccc2ncccc2c1 (stereo not drawn) [SJ000581063-1]	-3.487	4.364	16.39	53.98	1.779	3.168	4.562	2.415
Cn1cc(C2=C(c3cn(C)c4ccc(OCc5ccccc5)cc34)C(=O)NC2=O)c2ccccc21 [SJ000581064-1]	-3.355	2.588	-0.03201	0.7902	7.008	-0.03114	0.1859	-0.8092
O=C1C(c2c[nH]c3ccccc23)=C(c2c[nH]c3ccccc23)C(=O)N1O [SJ000581067-1]	-5.714	-0.1746	-1.683	1.166	18.95	-0.2137	0.7451	0.2373
Cn1cc(C2=C(c3cn(C)c4cc(C(N)=O)ccc34)C(=O)NC2=O)c2ccccc21 [SJ000581068-1]	87.67	51.9	75.21	76.64	59.82	54.4	58.86	63.24
Cn1cc(C2=C(c3c[nH]c4ccccc34)C(=O)NC2=O)c2ccccc21 [SJ000581069-1]	44.1	13.88	53.14	15.94	37	39.66	40.86	79.5
COc1cccc2c1c(C1=C(c3cn(C)c4ccccc34)C(=O)NC1=O)cn2C [SJ000581070-1]	10.2	-1.314	-0.4175	0.2803	8.87	-0.1682	5.504	2.978
CN=C1NC(=O)/C(=C/c2ccc3ncccc3c2)S1 [SJ000581072-1]	44.3	9.143	7.703	9.718	174.6	4.634	18.48	28.17
O=C1NC(=NCc2ccccc2)S/C1=C\c1ccc2ncccc2c1 [SJ000581073-1]	48.96	5.2	3.079	27.42	5.173	2.983	12.28	18.77
CS(=O)(=O)CCCn1c(=O)c(Oc2ccc(F)cc2F)cc2cnc(NC3CCOCC3)nc21 [SJ000581074-1]	-0.8153	-2.642	1.649	-0.6859	5.377	1.736	4.622	-2.241
O=C1NC(=O)C(c2c[nH]c3ccccc23)=C1c1ccccc1 [SJ000581075-1]	-2.624	-0.679	2.672	1.744	16.2	1.922	3.019	-2.51
Nc1c(C(=O)c2cccc(-c3ccncc3)c2)cnn1-c1ccc(F)cc1F [SJ000581077-1]	75.1	10.55	32.29	3.251	21.24	15.89	29.92	13.91
Cn1cc(C2=C(c3cn(C)c4cc(Cl)ccc34)C(=O)NC2=O)c2ccccc21 [SJ000581078-1]	127.5	103.6	87.46	84.42	127	61.36	100	85.69
Cc1ccc2c(c1)c(C1=C(c3cn(C)c4ccccc34)C(=O)NC1=O)cn2C [SJ000581079-1]	50.85	12.87	21.19	11.84	31.79	12.05	21.17	61.76
Cn1cc(C2=C(c3c4n(c5ccccc35)CCNC4)C(=O)NC2=O)c2ccccc21 [SJ000581080-1]	60.56	16.83	18.44	15.28	19.49	12.57	25.69	62.95
COc1ccc(OC)c(C2=C(c3cn(C)c4ccccc34)C(=O)NC2=O)c1 [SJ000581081-1]	3.003	0.8246	-0.9957	1.033	7.567	-0.4206	2.921	-2.282
COc1ccc2c(C3=C(c4cn(C)c5ccccc45)C(=O)NC3=O)cn(C)c2c1 [SJ000581082-1]	107.7	102.2	79.84	77.51	125.3	51.13	103.9	81.86
O=[N+]([O-])c1ccc2c(c1)C(c1ccccc1Cl)=Nc1cn[nH]c1N2 [SJ000581083-1]	-5.045	-0.274	-1.165	0.3353	-0.2746	-0.08337	4.12	-2.48
